Entries after “also recorded” stand apart in the source; their conditions may differ. Read-outs that look alike come from different tables or passages of the source.
What was measured:
Vero 81 cells = details: Vero 81, highest 50 μM concentration point
[1] = target: wild-type Nsp9COV19 as substrate of Nsp12COV19 NiRAN domain (Severe acute respiratory syndrome coronavirus 2, UniProt P0DTD1); format: biochemical; details: for Nsp9COV19 Cy3-modification, % of the signal of DMSO-only control reactions: 500 μM compound, 15 μM Nsp9COV19, 1 μM Nsp12COV19, triplicate
Vero e6 cells = details: Vero e6, highest 50 μM concentration point
SARS-CoV-2 [2] = details: cited from earlier work
SARS-CoV-2 [3] = format: cell-based
Nsp9COV19 = Nsp9COV19 (Severe acute respiratory syndrome coronavirus 2, UniProt P0DTD1); set-up: species or system SARS-CoV-2; details: native MS; binding ratios after incubation with 50 μM of each compound

Compound	effect on cell proliferation (MTT) (Vero 81 cells)	Nsp9COV19 Cy3-modification, % of the signal of DMSO-only control reactions [1]	inhibition of UMPylation reaction (in words) ([1]; UMPylation assays, discussion)	effect on cell proliferation (MTT) (Calu-3 cells)	effect on cell proliferation (MTT) (Vero e6 cells)	SARS-CoV-2 replication in in vitro cellular assays (SARS-CoV-2 [2])	viral titer following SARS-CoV-2 infection (SARS-CoV-2 [3])	viral titer following SARS-CoV-2 infection (SARS-CoV-2 [3]; Calu-3 cells, 15 μM, after 24 h)	viral titer following SARS-CoV-2 infection (SARS-CoV-2 [3]; Calu-3 cells, 15 μM, later time points (48, 72 h))	relative Nsp9COV19 binding / affinity (in words) (Nsp9COV19)
C=C1C(=O)[C@]23[C@H](O)[C@H]1CC[C@H]2[C@@]12CO[C@]3(O)[C@@H](O)[C@@H]1C(C)(C)CC[C@@H]2O [Compound 1, Oridonin]	a degree of reduced proliferation	20 ± 6%	significant levels of inhibition	no effect on cell proliferation detected	a degree of reduced proliferation	inhibit SARS-CoV-2 replication	reduce viral tite at all time points	approximately fivefold reduced	not maintained at later time points	–
C=C1C(=O)[C@]23[C@H](O)[C@H]1CC[C@H]2[C@@]12CO[C@@]3(O)[C@@H](O)[C@@H]1[C@](C)(COC(C)=O)CC[C@H]2O [Compound 3, Xerophilusin G]	–	–	–	–	–	–	–	–	–	significantly reduced binding response; also recorded: abrogated binding completely
C=C1C(=O)[C@@]23[C@H](O)C[C@@H]4C(C)(C)CC[C@H](O)[C@@]4(CO)[C@@H]2CC[C@@H]1[C@H]3O [Compound 6, Kamebakaurin]	–	~66%	–	–	–	–	–	–	–	some ability to cocomplex with Nsp9COV19 is retained
